Laboratory results published in US20120277187A1, “Agent for Preventing Infection” (priority 2006, published 2012).
“Also recorded” adds a separate entry of the source.

Tests used:
Assay type in all cases: in vivo, mouse (Balb/c)
[1] = test system: influenza virus PR 8 (H1N1); assay: Oral administration of sphingomyelin, prevention of influenza virus infection in mice (nasal cavity wash virus titer, plaque method with MDCK cell); conditions: for Nasal cavity virus titer x (PFU/ml: 10^x): 1×10^3 pfu PR 8 (H1N1), nasal cavity washes 3 days after infection
From the text: (Verification of the Effect of Oral Administration of Sphingomyelin on the Prevention of Infection with an Influenza Virus)
A mouse (Balb/c, male, 6 weeks of age) was infected with 1×10^3 pfu in viral quantity of influenza virus PR 8 (H1N1). Before the infection treatment, sphingomyelin was orally administered, and its infection preventive effect was judged by the virus titer in the nasal cavity washes 3 days after the virus infection. In carrying out the oral administration, sphingomyelin was used by dispersing in water. A plaque method which uses MDCK cell was used in the judgment.
This indicates the effect of sphingomyelin to prevent infection with an influenza virus.

[2] = test system: A/Guizhou virus (type A influenza virus); assay: Transnasal sphingomyelin with simultaneous type A influenza virus infection in mice (nasal cavity wash virus titer, plaque method with MDCK cell)
Method: (§1) (Verification of the Effect to Prevent Infection with Type A Influenza Virus and Type B Influenza Virus)
(§2) Mice (Balb/c, male, 6 weeks of age) were transnasally infected with A/Guinzhou virus as the type A influenza virus or B/Ibaraki virus as the type B influenza virus, and at the same time, a 100 μg/ml solution of the sphingomyelin (SPM) obtained in Example 1 was transnasally administered at a dose of 5 μl/nasal cavity dose (dose: 0.5 μg), and the preventive effect on the infection with an influenza virus was judged by the virus titer in the nasal cavity washes. In this connection, groups transnasally infected with respective influenza viruses alone were prepared. A plaque method which uses MDCK cell was used in the judgment.

[3] = test system: B/Ibaraki virus (type B influenza virus); assay: Transnasal sphingomyelin with simultaneous type B influenza virus infection in mice (nasal cavity wash virus titer, plaque method with MDCK cell)
Method: as §1, §2

How did the “Nasal cavity virus titer x (PFU/ml: 10^x)” value ([1]; 1 mg oral before infection) turn out when sphingomyelin [SPM] was run?
Its value is 2.23 ± 0.16 PFU/ml: 10^x.

What about the “Nasal cavity virus titer x (PFU/ml: 10^x)” value ([1]; 10 mg oral before infection) of the same substance?
The value was 2.15 ± 0.29 PFU/ml: 10^x.

And the “Nasal cavity virus titer in administration group (in words)” value ([1]; oral administration group versus control (no administration))?
Its value is “lowered with significance”.

And the “Nasal cavity virus titer” value ([2]; A/Guizhou virus, transnasal 100 μg/ml, 5 μl/nasal cavity (dose 0.5 μg) at the same time as infection)?
Its value is 1.99 ± 0.31.

What about the “Infection preventive effect (in words)” value ([2]; type A influenza virus, transnasal administration) of the same substance?
Its value is “confirmed; also recorded: more considerable effect”.

And the “Nasal cavity virus titer” value ([3]; B/Ibaraki virus, transnasal 100 μg/ml, 5 μl/nasal cavity (dose 0.5 μg) at the same time as infection)?
Its value is 2.73 ± 0.06.

And the “Infection preventive effect (in words)” value ([3]; type B influenza virus, transnasal administration)?
Its value is “confirmed”.
